Reference: patent US11504336B2, “Extended release pharmaceutical composition of clozapine” (INTAS PHARMACEUTICALS LTD., priority 2016, dated 2022)

Assays:
[1] = cited from earlier work
[2] = cited from earlier work; remark: listed apart in the source
[3] = Dissolution of the example 7 composition in media of different pH (Basket/100 RPM/900 ml); assay type: physicochemical; conditions: 0.1N HCl vs phosphate buffer pH 6.0 and pH 6.8

Compound: CN1CCN(C2=Nc3cc(Cl)ccc3Nc3ccccc32)CC1 [Clozapine, 8-chloro-11-(4-methyl-1-piperazinyl)-5H-dibenzo[b,e][1,4]diazepine]
- solubility in acidic pH ([1]; acidic pH): soluble in acidic pH
- solubility in basic pH ([1]; basic pH): practically insoluble in basic pH
- solubility in intestinal pH ([1]; intestinal pH): insoluble in intestinal pH
- solubility in water ([1]; water): very slightly soluble in water
- dose that reaches systemic circulation unchanged ([2]; extensive first pass metabolism): 27-50%
- plasma half-life, mean value ([2]; wide inter-individual variation): 6 ± 1.5 h
- solubility behaviour concluded from dissolution data [3]: pH dependent solubility
